The source of these data is patent US20090069320A1, “Substituted 4-Amino-Quinazoline Compounds with Metabotropic Glutamate Receptor Regulating Activity and Uses Thereof” (Gruenenthal GmbH, priority 2006, published 2009).

pIC50: −log10 of the molar value. Where a name gives a salt, the structure may show the parent alone.

In one assay the target is T1, mGluR5 receptor (Sus scrofa, UniProt I3LUI7).
T1 construct: 450 μg of protein from brain homogenate with 5 nM ^3[H]-MPEP; from tissue; host or cells: pig brain halves without medulla, cerebellum and pons
T1 sequence (I3LUI7 19-1212): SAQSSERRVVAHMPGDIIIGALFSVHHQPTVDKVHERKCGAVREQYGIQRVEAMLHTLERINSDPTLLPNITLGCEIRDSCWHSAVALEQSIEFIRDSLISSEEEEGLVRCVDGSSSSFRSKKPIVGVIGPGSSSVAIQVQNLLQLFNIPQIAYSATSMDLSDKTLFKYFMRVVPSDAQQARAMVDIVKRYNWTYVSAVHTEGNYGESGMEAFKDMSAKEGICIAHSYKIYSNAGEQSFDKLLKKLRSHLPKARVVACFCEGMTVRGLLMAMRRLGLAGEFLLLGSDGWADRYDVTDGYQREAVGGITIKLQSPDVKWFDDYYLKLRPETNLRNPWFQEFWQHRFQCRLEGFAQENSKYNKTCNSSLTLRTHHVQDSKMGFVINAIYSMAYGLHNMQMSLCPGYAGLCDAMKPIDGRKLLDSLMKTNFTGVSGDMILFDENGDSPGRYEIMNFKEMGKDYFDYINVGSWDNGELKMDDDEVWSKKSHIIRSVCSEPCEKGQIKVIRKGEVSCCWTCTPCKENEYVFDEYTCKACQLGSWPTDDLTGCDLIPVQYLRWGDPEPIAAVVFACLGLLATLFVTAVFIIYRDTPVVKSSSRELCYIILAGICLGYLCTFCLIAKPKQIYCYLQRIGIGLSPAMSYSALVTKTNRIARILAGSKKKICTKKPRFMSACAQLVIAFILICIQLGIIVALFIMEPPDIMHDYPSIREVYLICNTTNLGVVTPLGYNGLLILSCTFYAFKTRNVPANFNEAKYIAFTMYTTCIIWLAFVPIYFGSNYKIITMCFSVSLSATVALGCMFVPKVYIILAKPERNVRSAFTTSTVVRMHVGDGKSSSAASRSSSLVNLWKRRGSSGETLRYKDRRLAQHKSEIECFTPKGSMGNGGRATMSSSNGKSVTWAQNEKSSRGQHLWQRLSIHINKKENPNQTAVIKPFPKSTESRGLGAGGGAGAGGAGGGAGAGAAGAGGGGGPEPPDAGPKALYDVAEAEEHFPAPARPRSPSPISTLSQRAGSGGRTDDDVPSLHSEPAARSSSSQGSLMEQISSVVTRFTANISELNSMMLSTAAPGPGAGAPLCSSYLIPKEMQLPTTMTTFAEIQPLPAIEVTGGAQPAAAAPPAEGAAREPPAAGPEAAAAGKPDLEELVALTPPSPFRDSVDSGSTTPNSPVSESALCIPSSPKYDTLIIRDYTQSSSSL
Kind of assay: [3H]-MPEP mGluR5 receptor binding assay (pig brain homogenate). To be noted: 5 nM [3H]-MPEP, read-out: IC50 mGluR5 Receptor (pig) [^3H]-MPEP Bond. The method in brief: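 Compounds at 10 μM competed with 5 nM [3H]-MPEP for binding to pig brain membranes (450 μg protein) for 60 min at room temperature in pH 8.0 Hepes buffer. Bound radioactivity was collected on glass-fibre filters and read by β-counting, with 10 μM unlabelled MPEP giving non-specific binding.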
Consider `O=C(CCc1ccccc1)N(Cc1cccc(-c2ccc3ncnc(NC4CC4)c3c2)c1)C1CC1` [Example 263, N-cyclopropyl-N-[3-(4-cyclopropylamino-quinazolin-6-yl)-benzyl]-3-phenyl-propionamide], for which the pIC50 is 5.77.
For the compound `O=C(C=Cc1ccccc1)N(Cc1cccc(-c2ccc3ncnc(NC4CC4)c3c2)c1)C1CC1` [Example 255, N-cyclopropyl-N-[3-(4-cyclopropylamino-quinazolin-6-yl)-benzyl]-3-phenyl-acrylamide], the pIC50 was 5.73.
Still for that read-out and setting: for `O=C(c1ccccn1)N(Cc1cccc(-c2cc(F)c3ncnc(NC4CC4)c3c2)c1)C1CC1` [Example 708, N-cyclopropyl-N-(3-(4-(cyclopropylamino)-8-fluoroquinazolin-6-yl)benzyl)picolinamide] the value was 6.89; for `COc1ccc(-c2ccc3ncnc(NC4CC4)c3c2)cc1CNC1CC1` [Example 298, N-cyclopropyl-6-(3-((cyclopropylamino)methyl)-4-methoxyphenyl)quinazoline-4-amine], 4.97; for `O=C1CCCN1Cc1cccc(-c2ccc3ncnc(NC4CC4)c3c2)c1` [Example 217, 1-[3-(4-cyclopropylamino-quinazolin-6-yl)-benzyl]-pyrrolidine-2-one; hydrochloride], 6.29.
Still for that read-out and setting: as for `CC(=O)N(Cc1cccc(-c2ccc3ncnc(NC4CC4)c3c2)n1)C1CC1` [Example 890, N-cyclopropyl-N-((6-(4-(cyclopropylamino)quinazolin-6-yl)pyridin-2-yl)methyl)acetamide], the figure is 5.34; as for `CNc1ncnc2ccc(-c3cccc(CN4C(=O)CCC4=O)c3)cc12` [Example 198, 1-[3-(4-methylamino-quinazolin-6-yl)-benzyl]-pyrrolidine-2,5-dione], 5.28.
Still for that read-out and setting: as for `CC(C)Nc1ncnc2ccc(-c3cccc(CN4C(=O)CCC4=O)c3)cc12` [Example 873, 1-(3-(4-(isopropylamino)quinazolin-6-yl)benzyl)pyrrolidine-2,5-dione hydrochloride], the figure is 7.10; as for `Cc1cc2ncnc(NC3CC3)c2cc1-c1cccc(CN2C(=O)CCC2=O)c1` [Example 884, 1-(3-(4-(cyclopropylamino)-7-methylquinazolin-6-yl)benzyl)pyrrolidine-2,5-dione], 6.89.
Turning to `CC(=O)N(Cc1cc(-c2ccc3ncnc(NC4CC4)c3c2)ccc1F)C(C)(C)C` [Example 279, N-tert-butyl-N-(5-(4-(cyclopropylamino)quinazolin-6-yl)-2-fluorobenzyl)acetamide], the pIC50 was 5.03.
Still for that read-out and setting: as for `COC(=O)C(=O)N(Cc1cccc(-c2ccc3ncnc(NC4CC4)c3c2)c1)C1CC1` [Example 238, N-cyclopropyl-N-[3-(4-cyclopropylamino-quinazolin-6-yl)-benzyl]-methyl oxalate], the figure is 6.30.

Still in this assay, the particulars now being: 10 μM compound, 5 nM [3H]-MPEP.
In the case of `COc1ccc(S(=O)(=O)N(Cc2cc(-c3ccc4ncnc(NC5CC5)c4c3)ccc2F)C2CC2)cc1` [Example 383, N-cyclopropyl-N-(5-(4-(cyclopropylamino)quinazolin-6-yl)-2-fluorobenzyl)-4-methoxybenzole sulfonamide], the “% Inhibition of mGluR5 Receptor (pig) [^3H]-MPEP Bond at 10 μM” value is 69%.

The assay is the same for the next values; noted with them: 10 μM compound, 5 nM [3H]-MPEP, read-out: % Inhibition of mGluR5 Receptor (pig) [^3H]-MPEP Bond at 10 μM.
In the case of `O=C(O)CCC(=O)NCc1cccc(-c2ccc3ncnc(Nc4ccccc4)c3c2)c1` [Example 329, 4-oxo-4-(3-(4-(phenylamino)quinazolin-6-yl)benzylamino)butyric acid], the inhibition at 10 µM was 57%.
Still for that read-out and setting: as for `CN(c1ncnc2ccc(-c3cccc(CN4C(=O)CCC4=O)c3)cc12)C1CC1` [Example 901, 1-(3-(4-(cyclopropyl(methyl)amino)quinazolin-6-yl)benzyl)pyrrolidine-2,5-dione], the figure is 40%; as for `Cc1cc2ncnc(NC3CC3)c2cc1-c1cccc(CN(C(=O)CCc2ccccc2)C2CC2)c1` [Example 669, N-cyclopropyl-N-(3-(4-(cyclopropylamino)-7-methylquinazolin-6-yl)benzyl)-3-phenylpropanamide], 77%.
The same measure, in the same setting: as for `O=C(C1CCCCC1)N(Cc1cc(-c2ccc3ncnc(NC4CC4)c3c2)ccc1Cl)C1CC1` [Example 741, N-(2-chloro-5-(4-(cyclopropylamino)quinazolin-6-yl)benzyl)-N-cyclopropylcyclohexane carboxamide], the figure is 37%; as for `CC(C)(C)Nc1ncnc2ccc(-c3ccc(F)c(CN(C(=O)c4ccc(C(F)(F)F)cc4F)C4CC4)c3)cc12` [Example 860, N-(5-(4-(tert-butylamino)quinazolin-6-yl)-2-fluorobenzyl)-N-cyclopropyl-2-fluoro-4-(trifluoromethyl)benzamide], 63%; as for `O=C(CCc1ccccc1)N(Cc1cc(-c2ccc3ncnc(NC4CC4)c3c2)ccn1)C1CC1` [Example 847, N-cyclopropyl-N-((4-(4-(cyclopropylamino)quinazolin-6-yl)pyridin-2-yl)methyl)-3-phenylpropanamide], 43%.
As for `Cc1nc(NC2CC2)c2cc(-c3ccc(F)c(CN(C(=O)c4ccc(C(F)(F)F)cc4F)C4CC4)c3)ccc2n1` [Example 532, N-cyclopropyl-N-(5-(4-(cyclopropylamino)-2-methylquinazolin-6-yl)-2-fluorobenzyl)-2-fluoro-4-(trifluoromethyl)benzamide], the inhibition at 10 µM was 61%.
Same read-out and setting: for `O=C(c1ccc(C(F)(F)F)cc1F)N(Cc1cc(-c2ccc3ncnc(NC4CC4)c3c2)ccc1F)C1CC1` [Example 397, N-cyclopropyl-N-(5-(4-(cyclopropylamino)quinazolin-6-yl)-2-fluorobenzyl)-2-fluoro-4-(trifluoromethyl)benzamide] the value was 87%; for `O=C(Cc1ccccc1)N(Cc1cc(-c2ccc3ncnc(NC4CC4)c3c2)ccn1)C1CC1` [Example 841, N-cyclopropyl-N-((4-(4-(cyclopropylamino)quinazolin-6-yl)pyridin-2-yl)methyl)-2-phenylacetamide], 36%.
Regarding `CCCN(Cc1cccc(-c2ccc3ncnc(Nc4ccccc4)c3c2)c1)C(=O)c1ccccc1` [Example 89, N-[3-(4-phenylamino-quinazolin-6-yl)-benzyl]-N-propyl-benzamide], the inhibition at 10 µM was found to be 52%.
On the same count and under the same terms, for `CCCCNCc1cccc(-c2ccc3ncnc(NC4CC4)c3c2)c1` [Example 310, 6-(3-((butylamino)methyl)phenyl)-N-cyclopropylquinazoline-4-amine] the value was 50%.
On the same count and under the same terms, for `O=C(c1ccc(C(F)(F)F)cc1F)N(Cc1cccc(-c2cc(F)c3ncnc(NC4CC4)c3c2)c1)C1CC1` [Example 738, N-cyclopropyl-N-(3-(4-(cyclopropylamino)-8-fluoroquinazolin-6-yl)benzyl)-2-fluoro-4-(trifluoromethyl)benzamide] the value was 90%; for `CCCC(=O)N(Cc1ccccc1)Cc1cccc(-c2ccc3ncnc(NC(C)C)c3c2)c1` [Example 148, N-benzyl-N-[3-(4-isopropylamino-quinazolin-6-yl)-benzyl]-butyramide], 40%.
The same measure, in the same setting: as for `CNc1ncnc2ccc(-c3ccc(F)c(CN(C)S(=O)(=O)Cc4ccccc4)c3)cc12` [Example 586, N-(2-fluoro-5-(4-(methylamino)quinazolin-6-yl)benzyl)-N-methyl-1-phenylmethane sulfonamide], the figure is 62%.
As for `CC(=O)N(Cc1cncc(-c2ccc3ncnc(NC4CC4)c3c2)c1)C1CC1` [Example 240, N-cyclopropyl-N-[5-(4-cyclopropylamino-quinazolin-6-yl)-pyridin-3-yl-methyl]-acetamide], the inhibition at 10 µM came to 47%.
The same measure, in the same setting: as for `O=C(c1c(F)c(F)c(F)c(F)c1F)N(Cc1cc(-c2ccc3ncnc(NC4CC4)c3c2)ccn1)C1CC1` [Example 803, N-cyclopropyl-N-((4-(4-(cyclopropylamino)quinazolin-6-yl)pyridin-2-yl)methyl)-2,3,4,5,6-pentafluorobenzamide], the figure is 93%.
Turning to `O=C(c1c(F)c(F)c(F)c(F)c1F)N(Cc1cc(-c2ccc3ncnc(NC4CC4)c3c2)ccc1F)C1CC1` [Example 389, N-cyclopropyl-N-(5-(4-(cyclopropylamino)quinazolin-6-yl)-2-fluorobenzyl)-2,3,4,5,6-pentafluorobenzamide], the inhibition at 10 µM came to 91%.
Same read-out and setting: for `O=C(c1cnccn1)N(Cc1cccc(-c2ccc3ncnc(NC4CC4)c3c2)c1)C1CC1` [Example 162, pyrazine-2-carboxylic acid cyclopropyl-[3-(4-cyclopropylamino-quinazolin-6-yl)-benzyl]-amide] the value was 84%.
Same read-out and setting: as for `CN(C)CC(=O)N(Cc1cccc(-c2ccc3ncnc(NCCc4ccccc4)c3c2)c1)C1CC1` [Example 417, N-cyclopropyl-2-(dimethylamino)-N-(3-(4-(phenethylamino)quinazolin-6-yl)benzyl)acetamide], the figure is 60%; as for `N#CCC(=O)N(Cc1ccc(F)c(-c2ccc3ncnc(NC4CC4)c3c2)c1)C1CC1` [Example 900, 2-cyano-N-cyclopropyl-N-(3-(4-(cyclopropylamino)quinazolin-6-yl)-4-fluorobenzyl)acetamide], 81%.
Same read-out and setting: for `O=C(CCc1ccccc1)N(Cc1cc(-c2ccc3ncnc(NC4CC4)c3c2)ccc1F)C1CC1` [Example 414, N-cyclopropyl-N-(5-(4-(cyclopropylamino)quinazolin-6-yl)-2-fluorobenzyl)-3-phenylpropanamide] the value was 93%; for `CCCCC(=O)N(Cc1cccc(-c2cc3c(NC4CC4)ncnc3cc2C)c1)C1CC1` [Example 715, N-cyclopropyl-N-(3-(4-(cyclopropylamino)-7-methylquinazolin-6-yl)benzyl)pentanamide], 90%.

The term pIC50 denotes −log10 of the IC50, conventionally taken in molar units. A word on the inhibition: it is how much of the control response was suppressed.
